Patent US20250388605A1, “HETEROBIFUNCTIONAL COMPOUNDS AND METHODS OF TREATING DISEASE” (Halda Therapeutics OpCo, Inc., priority 2022, published 2025)

Assays:
[1] = system: T-Rex 293 cell line SC cells having increased expression of progesterone receptor isoform B protein; test: Cellular growth inhibition assay, T-Rex 293 SC cells exposed to doxycycline (increased progesterone receptor isoform B expression), CellTiter-Glo; type: cell-based; settings: T-Rex 293 SC cells with 10 ng/mL doxycycline (increased PR isoform B), 72 hours
Protocol: The SC cells were seeded on poly-D-lysine coated, black clear-bottom 384-well plates at 2500/well, in 25 μL Phenol Red Free Dulbecco's Modified Eagle Medium (DMEM) supplemented with 10% w/w charcoal-dextran treated fetal bovine serum (FBS) and 1% w/w pen-strep, with or without 10 ng/mL doxycycline. Pen-Strep is a commercially available mixture of penicillin G and streptomycin, which is used in mammalian cell culture media to prevent bacterial contamination. Phenol Red Free Dulbecco's Modified Eagle Medium (DMEM) supplemented with 10% w/w charcoal-dextran treated fetal bovine serum (FBS) and 1% w/w pen-strep, with or without 10 ng/mL doxycycline is herein referred to as Treatment Medium. Following seeding of cells in the plates, the plates were spun at 300×g for 30 seconds, then equilibrated to room temperature for 30 minutes, and then deposited in a humidified tissue culture incubator maintained at 37° C. with 5% CO2.
At 24 hours after seeding of the cells, dilutions of test compound were prepared in DMSO and dissolved in Treatment Medium, to achieve a final DMSO concentration of 0.5% w/w, thereby providing the Test Compound Solution. A 25 μL aliquot of the Test Compound Solution was added to cells in the well plates. An equal volume of a solution containing DMSO and Treatment Medium was used as a negative control. Following treatment of cells with Test Compound Solution or said equal volume of a solution containing DMSO and Treatment Medium, the plates were spun at 300×g for 30 seconds, and then left in an incubator for 72 hours.
At the end of the treatment duration, cell viability was quantified with CellTiter-Glo 2.0 reagent (Promega Cat #G9243). For this purpose, plates were equilibrated to room temperature for 30 minutes, and then 25 μL of CellTiter-Glo 2.0 reagent was added to cells in the plate wells. Plates were then agitated on a shaker for two minutes at 500 rpm and subsequently incubated at room temperature for 10 minutes. Following incubation, the plates were spun at 3000×g for 30 seconds, then sealed with an optical adhesive cover, and luminescence readings were measured with an EnVision Plate Reader (Perkin Elmer).
Data was normalized using zero luminescence for baseline. A four-parameter non-linear regression curve fit was applied to dose-response data in GraphPad Prism data analysis software to determine the half-maximal growth inhibitory concentration (GI50) for each test compound.

[2] = target: T1, progesterone receptor ligand binding domain (GST-tagged PR LBD) (Homo sapiens, UniProt P06401); test: FP Assay for Binding Affinity to Progesterone Receptor (PolarScreen Progesterone Receptor Competitor Assay Kit); settings: fluorescence polarization, Fluormone tracer, 2 hours at room temperature
T1 construct: purchased Life Technologies A15905 or a15906
T1 sequence (P06401 679-913 limits assumed): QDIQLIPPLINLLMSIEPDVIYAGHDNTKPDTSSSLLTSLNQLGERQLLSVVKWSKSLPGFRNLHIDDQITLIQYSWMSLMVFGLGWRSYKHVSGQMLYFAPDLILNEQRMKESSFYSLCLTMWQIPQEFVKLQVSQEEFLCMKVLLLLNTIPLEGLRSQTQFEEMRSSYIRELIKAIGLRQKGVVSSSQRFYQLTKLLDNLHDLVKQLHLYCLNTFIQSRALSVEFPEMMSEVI
Protocol: Exemplary compounds were tested for ability to bind to the progesterone receptor ligand binding domain (LBD).
Compounds were tested using the PolarScreen™ Progesterone Receptor Competitor Assay Kit (Life Technologies Cat #A15905 or a15906), as per the manufacturer's instructions. Briefly, GST-tagged PR LBD, Fluormone tracer, and compound were mixed and incubated for 2 hours at room temperature in the dark. Following incubation, the plates were spun at 3000×g for 30 seconds, then sealed with an optical adhesive cover, and fluorescence polarization was measured using appropriate excitation and emission filters with an EnVision Plate Reader (Perkin Elmer). Compound concentration vs. mP value were plotted in Prism (GraphPad). A four-parameter non-linear regression curve fit was applied to dose-response data to determine the half-maximal inhibitory concentration (IC50) for each test compound.

Row | Structure (SMILES) | GI50 [1] [nM] | IC50 [2] [nM]
1 | CCS(=O)(=O)Nc1ccc(Oc2cccc(OCCOC3CCN(c4ncc(C(=O)N[C@H]5C(C)(C)[C@H](Oc6ccc(C#N)c(Cl)c6)C5(C)C)cn4)CC3)c2)c(-c2cn(C)c(=O)c3[nH]ccc23)c1 [Compound I-6] | < 500 | 
2 | CCS(=O)(=O)Nc1ccc(Oc2cccc(OCCOCCOCCOC3CCN(c4ncc(C(=O)N[C@H]5C(C)(C)[C@H](Oc6ccc(C#N)c(Cl)c6)C5(C)C)cn4)CC3)c2)c(-c2cn(C)c(=O)c3[nH]ccc23)c1 [Compound I-7] | < 500 | 
3 | CCS(=O)(=O)Nc1ccc(Oc2cccc(N3CC4(CN(CC5CCN(c6ncc(C(=O)N[C@H]7C(C)(C)[C@H](Oc8ccc(C#N)c(Cl)c8)C7(C)C)cn6)CC5)C4)C3)c2)c(-c2cn(C)c(=O)c3[nH]ccc23)c1 [Compound I-35, N-((1r, 3r)-3-(3-chloro-4-cyanophenoxy)-2,2,4,4-tetramethylcyclobutyl)-2-(4-((6-(3-(4-(ethylsulfonamido)-2-(6-methyl-7-oxo-6,7-dihydro-1H-pyrrolo[2,3-c]pyridin-4-yl)phenoxy)phenyl)-2,6-diazaspiro[3.3]heptan-2-yl)methyl)piperidin-1-yl)pyrimidine-5-carboxamide] | < 500 | 500 to 2500
4 | CCS(=O)(=O)Nc1ccc(Oc2cccc(OC3CCC4(CC3)CCN(c3ncc(C(=O)N[C@H]5C(C)(C)[C@H](Oc6ccc(C#N)c(Cl)c6)C5(C)C)cn3)CC4)c2)c(-c2cn(C)c(=O)c3[nH]ccc23)c1 [Compound I-45] | < 500 | > 2500
5 | CCS(=O)(=O)Nc1ccc(Oc2ccc(F)c(OCCOC3CCN(c4ncc(C(=O)N[C@H]5C(C)(C)[C@H](Oc6ccc(C#N)c(Cl)c6)C5(C)C)cn4)CC3)c2F)c(-c2cn(C)c(=O)c3[nH]ccc23)c1 [Compound I-65] | < 500 | 
6 | CCS(=O)(=O)Nc1ccc(Oc2cccc(N3CC(OC4CCN(c5ncc(C(=O)N[C@H]6C(C)(C)[C@H](Oc7ccc(C#N)c(Cl)c7)C6(C)C)cn5)CC4)C3)c2)c(-c2cn(C)c(=O)c3[nH]ccc23)c1 [Compound I-80] |  | > 2500
7 | Cn1cc(-c2cc(C(C)(C)O)ccc2Oc2cccc(N3CC(N4CCN(c5ncc(C(=O)N[C@H]6C(C)(C)[C@H](Oc7ccc(C#N)c(Cl)c7)C6(C)C)cn5)CC4)C3)c2F)c2cc[nH]c2c1=O [Compound I-92, N-((1r, 3r)-3-(3-chloro-4-cyanophenoxy)-2,2,4,4-tetramethylcyclobutyl)-2-(4-(1-(2-fluoro-3-(4-(2-hydroxypropan-2-yl)-2-(6-methyl-7-oxo-6,7-dihydro-1H-pyrrolo[2,3-c]pyridin-4-yl)phenoxy)phenyl)azetidin-3-yl)piperazin-1-yl)pyrimidine-5-carboxamide] | < 500 | 
8 | CCS(=O)(=O)Nc1ccc(Oc2cccc(OC3CC(C4CCN(c5ncc(C(=O)N[C@H]6C(C)(C)[C@H](Oc7ccc(C#N)c(Cl)c7)C6(C)C)cn5)CC4)C3)c2)c(-c2cn(C)c(=O)c3[nH]ccc23)c1 (stereo partly shown) [Compound I-104] | < 500 | > 2500
9 | Cn1cc(-c2cc(C(C)(C)O)ccc2Oc2cccc(N3CC(OC4CCN(c5ncc(C(=O)N[C@H]6C(C)(C)[C@H](Oc7ccc(C#N)c(Cl)c7)C6(C)C)cn5)CC4)C3)c2F)c2cc[nH]c2c1=O [Compound I-190] | < 500 | 
10 | Cc1ccc(CCCOC2CCN(c3ncc(C(=O)N[C@H]4C(C)(C)[C@H](Oc5ccc(C#N)c(Cl)c5)C4(C)C)cn3)CC2)c(C)c1Oc1ccc(C(C)(C)O)cc1-c1cn(C)c(=O)c2[nH]ccc12 [Compound I-195] | < 500 | 
11 | Cn1cc(-c2cc(C(C)(C)O)ccc2Oc2cccc(N3CC(CC4CCN(c5ncc(C(=O)N[C@H]6C(C)(C)[C@H](Oc7ccc(C#N)c(Cl)c7)C6(C)C)cn5)CC4)C3)c2F)c2cc[nH]c2c1=O [Compound I-196] | < 500 | 
12 | CN(c1ccc(Oc2ccc(C(C)(C)O)cc2-c2cn(C)c(=O)c3[nH]ccc23)cc1)C1CCN(c2ncc(C(=O)N[C@H]3C(C)(C)[C@H](Oc4ccc(C#N)c(Cl)c4)C3(C)C)cn2)CC1 [Compound I-197] | < 500 | 
13 | Cn1cc(-c2cc(C(C)(C)O)ccc2Oc2ccc(CC3CCN(c4ncc(C(=O)N[C@H]5C(C)(C)[C@H](Oc6ccc(C#N)c(Cl)c6)C5(C)C)cn4)CC3)cc2)c2cc[nH]c2c1=O [Compound I-201] | < 500 | > 2500
14 | Cn1cc(-c2cc(C(C)(C)O)ccc2Oc2ccc(OCC3CCN(c4ncc(C(=O)N[C@H]5C(C)(C)[C@H](Oc6ccc(C#N)c(Cl)c6)C5(C)C)cn4)CC3)cc2)c2cc[nH]c2c1=O [Compound I-202] | < 500 | > 2500
15 | Cn1cc(-c2cc(C(C)(C)O)ccc2Oc2ccc(OCCN3CCN(c4ncc(C(=O)N[C@H]5C(C)(C)[C@H](Oc6ccc(C#N)c(Cl)c6)C5(C)C)cn4)CC3)cc2)c2cc[nH]c2c1=O [Compound I-204] | < 500 | 50 to 500
16 | CN(C1CCN(c2ncc(C(=O)N[C@H]3C(C)(C)[C@H](Oc4ccc(C#N)c(Cl)c4)C3(C)C)cn2)CC1)C1CN(c2ccc(Oc3ccc(C(C)(C)O)cc3-c3cn(C)c(=O)c4[nH]ccc34)cc2)C1 [Compound I-208] | < 500 | 50 to 500
17 | CC(C)N(CC1CCN(c2ncc(C(=O)N[C@H]3C(C)(C)[C@H](Oc4ccc(C#N)c(Cl)c4)C3(C)C)cn2)CC1)[C@H]1C[C@H](Oc2cccc(Oc3ccc(C(C)(C)O)cc3-c3cn(C)c(=O)c4[nH]ccc34)c2F)C1 [Compound I-214] |  | < 50
18 | Cn1cc(-c2cc(C(C)(C)O)ccc2Oc2ccc(N3CC(OC4CCN(c5ncc(C(=O)N[C@H]6C(C)(C)[C@H](Oc7ccc(C#N)c(Cl)c7)C6(C)C)cn5)CC4)C3)cc2)c2cc[nH]c2c1=O [Compound I-219] | < 500 | 50 to 500
19 | CCS(=O)(=O)c1ccc(Oc2ccc(OCC3CCN(c4ncc5c(n4)CN([C@H]4C(C)(C)[C@H](Cc6ccc(C#N)c(Cl)c6)C4(C)C)C5=O)CC3)cc2)c(-c2cn(C)c(=O)c3[nH]ccc23)c1 [Compound I-220] | < 500 | 50 to 500
20 | CC(C)N(C1CCN(c2ncc(C(=O)N[C@H]3C(C)(C)[C@H](Oc4ccc(C#N)c(Cl)c4)C3(C)C)cn2)CC1)C1CN(c2cccc(Oc3ccc(C(C)(C)O)cc3-c3cn(C)c(=O)c4[nH]ccc34)c2F)C1 [Compound I-221] | < 500 | 50 to 500
21 | Cn1cc(-c2cc(C(C)(C)O)ccc2Oc2ccc(N3CC(CN4CC5CC4CN5c4ncc(C(=O)N[C@H]5C(C)(C)[C@H](Oc6ccc(C#N)c(Cl)c6)C5(C)C)cn4)C3)cc2)c2cc[nH]c2c1=O (stereo partly shown) [Compound I-228] | < 500 | 50 to 500
22 | CN(C1CN(c2ccc(Oc3ccc(C(C)(C)O)cc3-c3cn(C)c(=O)c4[nH]ccc34)cc2)C1)C1CN(c2ncc(C(=O)N[C@H]3C(C)(C)[C@H](Oc4ccc(C#N)c(Cl)c4)C3(C)C)cn2)C1 [Compound I-238] | < 500 | 50 to 500
23 | CN(CC1CCN(c2ncc(C(=O)N[C@H]3C(C)(C)[C@H](Oc4ccc(C#N)c(Cl)c4)C3(C)C)cn2)CC1)C1(c2ccc(Oc3ccc(C(C)(C)O)cc3-c3cn(C)c(=O)c4[nH]ccc34)cc2)COC1 [Compound I-255] | < 500 | 50 to 500
24 | Cn1cc(-c2cc(C(C)(C)O)ccc2Oc2ccc(CCCC3CC4(C3)CN(c3ncc(C(=O)N[C@H]5C(C)(C)[C@H](Oc6ccc(C#N)c(Cl)c6)C5(C)C)cn3)C4)cc2)c2cc[nH]c2c1=O [Compound I-268] | < 500 | 50 to 500
25 | Cn1cc(-c2cc(C(C)(C)O)ccc2Oc2ccc(N3CC(CC4CN(c5ncc(C(=O)N[C@H]6C(C)(C)[C@H](Oc7ccc(C#N)c(Cl)c7)C6(C)C)cn5)C4)C3)cc2)c2cc[nH]c2c1=O [Compound I-280] | < 500 | 50 to 500
